Data taken from ChEMBL document CHEMBL1201862, “PubChem BioAssay data set” (2004).
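Protocol summary: plate cells (96-well), add compound at 5 concentrations, incubate 48 h, interpolate endpoints linearly. Abbreviation: GI50, concentration required for 50% inhibition of growth.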 The source made the active and inactive calls. Rule as the data show it: active = GI50 up to about 1.1 µM and inactive = higher.

Assays:
Assay in all cases: DTP human tumour cell line panel, 48 h
[1] = test system: SN12C
[2] = test system: ACHN
[3] = test system: SF-268
[4] = test system: UO-31
[5] = test system: HCC 2998
[6] = test system: SK-MEL-5
[7] = test system: SK-MEL-2
[8] = test system: A549
[9] = test system: MDA-MB-231
[10] = test system: OVCAR-8
[11] = test system: Malme-3M
[12] = test system: OVCAR-4
[13] = test system: OVCAR-3
[14] = test system: HCT-116
[15] = test system: NCI-H460
[16] = test system: M14
[17] = test system: SK-OV-3
[18] = test system: HCT-15
[19] = test system: UACC-257
[20] = test system: NCI-H522

Row | Compound | GI50 [1] | GI50 [2] | GI50 [3] | GI50 [4] | GI50 [5] | GI50 [6] | GI50 [7] | GI50 [8] | GI50 [9] | GI50 [10] | GI50 [11] | GI50 [12] | GI50 [13] | GI50 [14] | GI50 [15] | GI50 [16] | GI50 [17] | GI50 [18] [µM] | GI50 [19] | GI50 [20]
1 | CC(C)C12CCC3(CCC4C(C)(C(=O)O)CCCC4(C)C3C1)C(CN)C2 (stereo not given) | 20.8 µM (inactive) | 33.4 µM (inactive) | 54.8 µM (inactive) | 40.4 µM (inactive) | 18.4 µM (inactive) | 27.7 µM (inactive) | 42.9 µM (inactive) | 30.1 µM (inactive) | 58.7 µM (inactive) | 30.7 µM (inactive) | 45 µM (inactive) | 67.9 µM (inactive) | 40.1 µM (inactive) | 17.3 µM (inactive) | 21.5 µM (inactive) | 30.4 µM (inactive) | > 100 µM (inactive) | 31.9 | 40.1 µM (inactive) | 23.8 µM (inactive)
2 | Cc1cc(N(CCCCl)CCCCl)ccc1/C=N/c1cccc(Cl)c1 | 16.7 µM (inactive) | 13.1 µM (inactive) | 12.2 µM (inactive) | 10.5 µM (inactive) | < 0.01 µM (active) | 14.4 µM (inactive) | 16.4 µM (inactive) | 12.3 µM (inactive) | 14 µM (inactive) | 11.9 µM (inactive) | 8.79 µM (inactive) | 12.4 µM (inactive) | 14.5 µM (inactive) | 25 µM (inactive) | 0.977 µM (active) | 18.5 µM (inactive) | 19.1 µM (inactive) | 13.6 | 0.428 µM (active) | 17.5 µM (inactive)
3 | C=C(CN1CC2C[C@](C(=O)OC)(c3cc4ccccc4[nH]3)C1C(OC)C2OC)S(=O)(=O)c1ccccc1 (stereo not given in full) | 3.27 µM (inactive) | 3.01 µM (inactive) | 4.43 µM (inactive) | 1.49 µM (inactive) | 1.87 µM (inactive) | 4.44 µM (inactive) | 4.17 µM (inactive) | 3.13 µM (inactive) | 3.35 µM (inactive) | 3.14 µM (inactive) | 0.43 µM (active) | 3.04 µM (inactive) | 3.35 µM (inactive) | 2.54 µM (inactive) | 3.07 µM (inactive) | 2.91 µM (inactive) | 3.49 µM (inactive) | 3.08 | 2.65 µM (inactive) | 1.7 µM (inactive)
4 | CN(C)CCCNc1c2c(nc3ccc(Cl)cc13)CCCC2 | 11.8 µM (inactive) | 16.1 µM (inactive) | 13.2 µM (inactive) | 10 µM (inactive) | 5.27 µM (inactive) | 14.4 µM (inactive) | 19.3 µM (inactive) | 16.8 µM (inactive) | 13.6 µM (inactive) | 12.8 µM (inactive) | 15.6 µM (inactive) | 15.3 µM (inactive) | 14.8 µM (inactive) | 6.03 µM (inactive) | 9.93 µM (inactive) | 13.8 µM (inactive) | 23 µM (inactive) | 13.3 | 16.3 µM (inactive) | 12.2 µM (inactive)
5 | C[C@]12CCC(=O)[C@@H](CCC3=CC(=O)C=CC3=O)[C@@H]1CCC2=O | 37.4 µM (inactive) | 16.6 µM (inactive) | 14.3 µM (inactive) | 14.3 µM (inactive) | 15.3 µM (inactive) | 6.32 µM (inactive) | 11.7 µM (inactive) | 18.8 µM (inactive) | 20.3 µM (inactive) | 16.1 µM (inactive) | 16.1 µM (inactive) | 17.2 µM (inactive) | 17.1 µM (inactive) | 15.5 µM (inactive) | 13.2 µM (inactive) | 17.8 µM (inactive) | 26.1 µM (inactive) | 17.4 | 17.8 µM (inactive) | 2.19 µM (inactive)
6 | COC(=O)C(Cc1ccccc1)NC(=O)c1ccc(CNC(=S)NCc2cccc(CNC(=S)NCc3ccccc3)c2)cc1 (stereo not given) | > 31.8 µM (inactive) | > 34.5 µM (inactive) | 18.3 µM (inactive) | > 35.2 µM (inactive) | > 35 µM (inactive) | > 32.6 µM (inactive) | > 33.3 µM (inactive) | > 34.5 µM (inactive) | > 34 µM (inactive) | > 31.7 µM (inactive) | > 34.9 µM (inactive) | > 32.1 µM (inactive) | 27.9 µM (inactive) | > 34 µM (inactive) | > 36.5 µM (inactive) | > 36 µM (inactive) | > 33.9 µM (inactive) | > 35.2 | > 35.8 µM (inactive) | > 32.5 µM (inactive)
7 | CC(OP(=O)(O)O)C(N)C(=O)O (stereo not given) | > 100 µM (inactive) | > 100 µM (inactive) | > 100 µM (inactive) | > 100 µM (inactive) | > 100 µM (inactive) | > 100 µM (inactive) | > 100 µM (inactive) | > 100 µM (inactive) | > 100 µM (inactive) | > 100 µM (inactive) | > 100 µM (inactive) | > 100 µM (inactive) | > 100 µM (inactive) | > 100 µM (inactive) | > 100 µM (inactive) | > 100 µM (inactive) | > 100 µM (inactive) | > 100 | > 100 µM (inactive) | > 100 µM (inactive)
8 | C=C1C(=O)O[C@@H]2C[C@@H](C)[C@@H]3[C@@H](OC4OC(COC(C)=O)C(O)C(O)C4O)CC(=O)[C@@]3(C)C[C@H]12 (stereo not given in full) | 1.54 µM (inactive) | 0.508 µM (active) | 9.77 µM (inactive) | 1.83 µM (inactive) | 1.75 µM (inactive) | 1.74 µM (inactive) | 7.5 µM (inactive) | 8.67 µM (inactive) | 4.36 µM (inactive) | 1.36 µM (inactive) | 0.283 µM (active) | 3.31 µM (inactive) | 1.1 µM (active) | 0.659 µM (active) | 14.3 µM (inactive) | 1.43 µM (inactive) | 19.1 µM (inactive) | 0.218 | 1.68 µM (inactive) | 0.127 µM (active)
9 | c1ccc(-c2cn3nc(N4CCOCC4)sc3n2)cc1 | 8.49 µM (inactive) | > 100 µM (inactive) | > 100 µM (inactive) | > 100 µM (inactive) | > 100 µM (inactive) | > 100 µM (inactive) | > 100 µM (inactive) | > 100 µM (inactive) | 85.9 µM (inactive) | 31.8 µM (inactive) | > 100 µM (inactive) | 34 µM (inactive) | > 100 µM (inactive) | > 100 µM (inactive) | 54.1 µM (inactive) | > 100 µM (inactive) | > 100 µM (inactive) | > 100 | > 100 µM (inactive) | > 100 µM (inactive)
10 | NC1=CN(Cc2ccccc2)C2=N/C(=C\c3ccco3)C(=O)N12 | > 100 µM (inactive) | > 100 µM (inactive) | > 100 µM (inactive) | > 100 µM (inactive) | > 100 µM (inactive) | > 100 µM (inactive) | > 100 µM (inactive) | > 100 µM (inactive) | > 100 µM (inactive) | > 100 µM (inactive) | > 100 µM (inactive) | > 100 µM (inactive) | > 100 µM (inactive) | > 100 µM (inactive) | > 100 µM (inactive) | > 100 µM (inactive) | > 100 µM (inactive) | > 100 | > 100 µM (inactive) | > 100 µM (inactive)
11 | Cc1cn(S(=O)(=O)c2ccccc2)c2c(OCc3ccccc3)cc([N+](=O)[O-])cc12 | 57.7 µM (inactive) | 61.7 µM (inactive) | > 100 µM (inactive) | 69.3 µM (inactive) | > 100 µM (inactive) | 6.17 µM (inactive) | 62.4 µM (inactive) | 41.5 µM (inactive) | 80.9 µM (inactive) | > 100 µM (inactive) | 17.5 µM (inactive) | 86.3 µM (inactive) | > 100 µM (inactive) | > 100 µM (inactive) | > 100 µM (inactive) | > 100 µM (inactive) | 50.8 µM (inactive) | > 100 | > 100 µM (inactive) | 70.5 µM (inactive)
12 | S=C1c2cc(Cl)ccc2N=C(NC2CCCC2)C2CSCN12 (stereo not given) | > 100 µM (inactive) | > 100 µM (inactive) | > 100 µM (inactive) | > 100 µM (inactive) | > 100 µM (inactive) | > 100 µM (inactive) | > 76.6 µM (inactive) | > 84.9 µM (inactive) | > 100 µM (inactive) | > 100 µM (inactive) | > 100 µM (inactive) | > 100 µM (inactive) | > 68.7 µM (inactive) | > 74.5 µM (inactive) | > 100 µM (inactive) | > 78 µM (inactive) | > 100 µM (inactive) | > 100 | > 91.6 µM (inactive) | > 100 µM (inactive)
13 | C=C1CC(COc2ccc3c(C)cc(=O)oc3c2)(c2ccccc2)OC1=O (stereo not given) | 5.27 µM (inactive) | 3.37 µM (inactive) | 5.33 µM (inactive) | 4.88 µM (inactive) | 5.18 µM (inactive) | 2.2 µM (inactive) | 1.4 µM (inactive) | 11.5 µM (inactive) | 2.74 µM (inactive) | 2.26 µM (inactive) | 1.3 µM (inactive) | 2.16 µM (inactive) | 2.69 µM (inactive) | 1.27 µM (inactive) | 7.43 µM (inactive) | 1.33 µM (inactive) | 4.17 µM (inactive) | 1.74 | 1.83 µM (inactive) | 1.74 µM (inactive)
14 | [N-]=[N+]=NC1C(O)C(CO)OC1n1ccc(N)nc1=O (stereo not given) | 227 µM (inactive) | 33.9 µM (inactive) | 191 µM (inactive) | 228 µM (inactive) | 46.7 µM (inactive) | > 625 µM (inactive) | 76.7 µM (inactive) | 219 µM (inactive) | 195 µM (inactive) | 55.5 µM (inactive) | 93.8 µM (inactive) | > 625 µM (inactive) | 68.2 µM (inactive) | > 172 µM (inactive) | 235 µM (inactive) | 26.1 µM (inactive) | > 625 µM (inactive) | 56.2 | 369 µM (inactive) | 37.6 µM (inactive)
